Experimental data from patent US10189842B2 (Agency for Science, Technology and Research, priority 2013, dated 2019).
pIC50: −log10 of the molar value.

System: HEK293-STF3A cells
Experiment: STF3A assay (luciferase reporter)
Assay type: cell-based, Human
Conditions: 1 day of treatment
Text: HEK293-STF cell line was modified from Human embryonic kidney cell line HEK293 transfected with the STF reporter. HEK293-STF3A cell line was further modified from HEK293-STF cell line to express Wnt3A. This cell line was used to identify compounds that regulate either early or late signaling components of the Wnt pathway. These two cell lines were obtained from David Virshup's laboratory, Duke-NUS. L-Wnt3A (ATCC, #CRL-2647) cell line was used for providing Wnt3A conditioned media. The three cell lines were grown in DMEM with 10% FBS incubated in 37° C. with 5% CO2.
2×10^4 HEK293-STF3A cells in 75 μl culture media were seeded in each well of white 96 well plates (Greiner #655098) and incubated overnight at 37° C. 25 μl serially diluted compound was added to the cells to give final concentration of 50 μM to 1.5 nM. After 1 day of treatment, 100 μl of Steady-Glo Luciferase Assay reagent (#E2520, Promega) was added to each well and incubated for 10 minutes at room temperature. Luminescence was measured using Tecan Safire2 plate reader.

Molecule | pIC50 | pIC50 (Homo sapiens, 24 h)
4-(2-methyl-6,7-dihydropyrazolo[1,5-a]pyrimidin-4(5H)-yl)-N-(4-(2-methylthiazol-4-yl)phenyl)-4-oxobutanamide [Compound 32] | > 7.00 | 
Cc1cc(NC(=O)CCC(=O)N2CCCn3nc(C)cc32)on1 [Compound 1, 4-(2-methyl-6,7-dihydropyrazolo[1,5-a]pyrimidin-4(5H)-yl)-N-(3-methylisoxazol-5-yl)-4-oxobutanamide] |  | < 5.00
Cc1cc2n(n1)CCCN2C(=O)CCC(=O)Nc1cc(-c2ccccc2)no1 [Compound 2, 4-(2-methyl-6,7-dihydropyrazolo[1,5-a]pyrimidin-4(5H)-yl)-4-oxo-N-(3-phenylisoxazol-5-yl)butanamide] |  | > 6.00
Cc1cc2n(n1)CCCN2C(=O)CCC(=O)Nc1cc(-c2cccc(Cl)c2)no1 [Compound 3, N-(3-(3-chlorophenyl)isoxazol-5-yl)-4-(2-methyl-6,7-dihydropyrazolo[1,5-a]pyrimidin-4(5H)-yl)-4-oxobutanamide] |  | > 7.00
Cc1cc2n(n1)CCCN2C(=O)CCC(=O)Nc1oncc1-c1ccccc1 [Compound 4, 4-(2-methyl-6,7-dihydropyrazolo[1,5-a]pyrimidin-4(5H)-yl)-4-oxo-N-(4-phenylisoxazol-5-yl)butanamide] |  | < 5.00
Cc1cc2n(n1)CCCN2C(=O)CCC(=O)Nc1cc(-c2ccc(Cl)cc2)no1 [Compound 5, N-(3-(4-chlorophenyl)isoxazol-5-yl)-4-(2-methyl-6,7-dihydropyrazolo[1,5-a]pyrimidin-4(5H)-yl)-4-oxobutanamide] |  | > 7.00
Cc1cc2n(n1)CCCN2C(=O)CCC(=O)Nc1cc(-c2ccccc2Cl)no1 [Compound 6, N-(3-(2-chlorophenyl)isoxazol-5-yl)-4-(2-methyl-6,7-dihydropyrazolo[1,5-a]pyrimidin-4(5H)-yl)-4-oxobutanamide] |  | < 5.00
Cc1cc2n(n1)CCCN2C(=O)CCC(=O)Nc1cc(-c2ccc(Cl)c(Cl)c2)no1 [Compound 7, N-(3-(3,4-dichlorophenyl)isoxazol-5-yl)-4-(2-methyl-6,7-dihydropyrazolo[1,5-a]pyrimidin-4(5H)-yl)-4-oxobutanamide] |  | < 5.00
Cc1cc2n(n1)CCCN2C(=O)CCC(=O)Nc1cc(-c2cccc(F)c2)no1 [Compound 8, N-(3-(3-fluorophenyl)isoxazol-5-yl)-4-(2-methyl-6,7-dihydropyrazolo[1,5-a]pyrimidin-4(5H)-yl)-4-oxobutanamide] |  | > 7.00
Cc1cc2n(n1)CCCN2C(=O)CCC(=O)Nc1cc(-c2cccc(Br)c2)no1 [Compound 9, N-[3-(3-bromophenyl)-1,2-oxazol-5-yl]-4-{2-methyl-5H,6H,7H-pyrazolo[1,5-a]pyrimidin-4-yl}-4-oxobutanamide] |  | > 6.00
COc1cccc(-c2cc(NC(=O)CCC(=O)N3CCCn4nc(C)cc43)on2)c1 [Compound 10, N-[3-(3-methoxyphenyl)-1,2-oxazol-5-yl]-4-{2-methyl-5H,6H,7H-pyrazolo[1,5-a]pyrimidin-4-yl}-4-oxobutanamide] |  | > 5.30
Cc1cccc(-c2cc(NC(=O)CCC(=O)N3CCCn4nc(C)cc43)on2)c1 [Compound 11, 4-{2-methyl-5H,6H,7H-pyrazolo[1,5-a]pyrimidin-4-yl}-N-[3-(3-methylphenyl)-1,2-oxazol-5-yl]-4-oxobutanamide] |  | < 5.00
Cc1cc2n(n1)CCCN2C(=O)CCC(=O)Nc1cc(-c2ccccc2C)no1 [Compound 12, 4-(2-methyl-6,7-dihydropyrazolo[1,5-a]pyrimidin-4(5H)-yl)-4-oxo-N-(3-(o-tolyl)isoxazol-5-yl)butanamide] |  | > 7.00
Cc1cc2n(n1)CCCN2C(=O)CCC(=O)Nc1cc(-c2cccc(C(F)(F)F)c2)no1 [Compound 13, 4-{2-methyl-5H,6H,7H-pyrazolo[1,5-a]pyrimidin-4-yl}-4-oxo-N-{3-[3-(trifluoromethyl)phenyl]-1,2-oxazol-5-yl}butanamide] |  | < 5.00
Cc1cc2n(n1)CCCN2C(=O)CCC(=O)Nc1ccc(-c2ccc(C(F)(F)F)cc2)cc1 [Compound 14, 4-(2-methyl-6,7-dihydropyrazolo[1,5-a]pyrimidin-4(5H)-yl)-4-oxo-N-(4′-(trifluoromethyl)-[1,1′-biphenyl]-4-yl)butanamide] |  | < 5.00
Cc1cc2n(n1)CCCN2C(=O)CCC(=O)Nc1cc(-c2ccc(N)cc2)no1 [Compound 15, N-[3-(4-aminophenyl)-1,2-oxazol-5-yl]-4-{2-methyl-5H,6H,7H-pyrazolo[1,5-a]pyrimidin-4-yl}-4-oxobutanamide] |  | < 5.00
Cc1cc2n(n1)CCCN2C(=O)CCC(=O)Nc1cc(-c2cc(Cl)ccn2)no1 [Compound 16, N-(3-(4-chloropyridin-2-yl)isoxazol-5-yl)-4-(2-methyl-6,7-dihydropyrazolo[1,5-a]pyrimidin-4(5H)-yl)-4-oxobutanamide] |  | < 5.00
Cc1cc2n(n1)CCCN2C(=O)CCC(=O)Nc1cc(-c2ccc(Cl)cn2)no1 [Compound 17, N-(3-(5-chloropyridin-2-yl)isoxazol-5-yl)-4-(2-methyl-6,7-dihydropyrazolo[1,5-a]pyrimidin-4(5H)-yl)-4-oxobutanamide] |  | < 5.00
Cc1cc2n(n1)CCCN2C(=O)CCC(=O)Nc1cc(-c2cncc(Cl)c2)no1 [Compound 18, N-[3-(5-chloropyridin-3-yl)-1,2-oxazol-5-yl]-4-{2-methyl-5H,6H,7H-pyrazolo[1,5-a]pyrimidin-4-yl}-4-oxobutanamide] |  | > 5.30
Cc1cc2n(n1)CCCN2C(=O)CCC(=O)Nc1cc(-c2cccnc2)no1 [Compound 19, 4-(2-methyl-6,7-dihydropyrazolo[1,5-a]pyrimidin-4(5H)-yl)-4-oxo-N-(3-(pyridin-3-yl)isoxazol-5-yl)butanamide] |  | < 5.00
Cc1cc2n(n1)CCCN2C(=O)CCC(=O)Nc1cc(-c2ccncc2)no1 [Compound 20, 4-{2-methyl-5H,6H,7H-pyrazolo[1,5-a]pyrimidin-4-yl}-4-oxo-N-[3-(pyridin-4-yl)-1,2-oxazol-5-yl]butanamide] |  | < 5.00
Cc1cc2n(n1)CCCN2C(=O)CCC(=O)Nc1cc(-c2cccc(Cl)c2)nn1C [Compound 21, N-(3-(3-chlorophenyl)-1-methyl-1H-pyrazol-5-yl)-4-(2-methyl-6,7-dihydropyrazolo[1,5-a]pyrimidin-4(5H)-yl)-4-oxobutanamide] |  | < 5.00
Cc1cc2n(n1)CCCN2C(=O)CCC(=O)Nc1nc(-c2cccc(Cl)c2)no1 [Compound 22, N-(3-(3-chlorophenyl)-1,2,4-oxadiazol-5-yl)-4-(2-methyl-6,7-dihydropyrazolo[1,5-a]pyrimidin-4(5H)-yl)-4-oxobutanamide] |  | < 5.00
Cc1cc2n(n1)CCCN2C(=O)CCC(=O)Nc1cc(-c2cccc(Cl)c2)on1 [Compound 23, N-[5-(3-chlorophenyl)-1,2-oxazol-3-yl]-4-{2-methyl-5H,6H,7H-pyrazolo[1,5-a]pyrimidin-4-yl}-4-oxobutanamide] |  | > 6.00
Cc1cc2n(n1)CCCN2C(=O)CCC(=O)Nc1ccc(-c2cnco2)cc1 [Compound 24, 4-(2-methyl-6,7-dihydropyrazolo[1,5-a]pyrimidin-4(5H)-yl)-N-(4-(oxazol-5-yl)phenyl)-4-oxobutanamide] |  | > 5.30
Cc1cc2n(n1)CCCN2C(=O)CCC(=O)Nc1ccc(-c2nccs2)cc1 [Compound 25] |  | > 7.00
